Legend:
[1] = tested on: plaque-forming cells (PFC) in the spleen of mice immunised with sheep red blood cells (SRBC); assay: Production of primary antibodies (Jerne test) in the spleen of mice immunised with SRBC; assay type: in vivo; details: for PFC/10^6 cells (x ± S.E.) / PFC/spleen (x ± S.E.): 25 mg/kg/d i.p. from day -3 through day 3, SRBC immunisation day 0, B6D2F1 mice
Protocol: The effects of ST 689 and ST 789 on the production of primary antibodies (Jerne test) in the spleen of mice immunised with sheep red blood cells (SRBC).
Male hybrid B6 D2 F1 mice (Charles River, Italy), 7-8 weeks old, were used in experimental groups of 6 animals each. In this test, each animal was examined individually.
The compounds were administered intraperitoneally at a daily dose of 25 mg/kg from day -3 to day +3, where day 0 was the day of immunisation. The experimental procedure employed is described in Jerne, N. K. et al., Transpl. Rev., 18:30 (1974). Animals were immunised by i.p. administration of a suspension of SRBC (1×10^8 cells/mouse in 0.2 mL of PBS buffer). Five days following this treatment, the animals were killed and their spleens sterilely removed. The splenocytes were suspended at a concentration of 1×10^7 cells/ml, and 0.1 mL of this splenocyte suspension was mixed with 2 mL of warm Hank's agar medium +0.2 mL of 10% SRBC in PBS buffer and incubated in a Petri dish for 60 min at 37° C. (the samples were tested in triplicate). Complement (2 mL of guinea pig serum diluted 1:10 with Tris buffer) was added, and the Petri dishes incubated for 30 min at 37° C. In the presence of complement the cells secreted anti-SRBC antibodies, which evoked a haemolytic reaction. Such a reaction is indicative of lytic plaques in the samples contained in the Petri dishes.
The results are expressed as: […]
a) number of plaque-forming cells (PFC) in a population of 1×10^6cells;
b) number of PFC in intact spleens.
The values obtained were analysed using Dunnett's test (Biostatistics in Pharmacology, vol. 2, Pergamon Press) to ascertain the statistical significance of differences between the treated and control animal groups.

E. coli = assay: Protective effect in experimentally-infected immunosuppressed mice (E. coli); assay type: in vivo; details: cyclophosphamide-immunodepressed CD1 mice; 25 mg/kg/d i.p. day -5 through day -1; challenge day 0
Excerpt: (§1) Evaluation of the protective effects of ST 689 and ST 789 in experimentally-infected immunosuppressed mice.
(§2) Male CDl mice (Charles River, Italy), 6-10 weeks old, were used in experimental groups of 9-20 animals. Systemic infection in the mice was achieved by intrapcritoncal inoculation of a pathogenic species of Klebsiclla (K. oxytoca), Proteus (P. mirabilis), Serratia (S. marcescens),and Hscherichia (E. coli). Eighteen-hour broth cultures were used to prepare infectious inocula that were either sublethal (Proteus) or which corresponded to an LD30 (Serratia) and an LD10 (Escherichia, Klebsiella). The bacterial challenge, inoculated i.p. in 0.5 mL of 5% gastric mucin, was designed to cause the death of animals immunodepressed with cyclophosphamide (administered i.p. in 0.2 mL of sterile physiological solution at a dosage of 100 mg/kg) 5 days prior to infection. The compounds were administered i.p. at daily doses of 25 mg/kg from day -5 to day -1 with respect to the day of bacterial inoculation (day 0). The results are expressed as % mortality and were statistically analysed using Fisher's test (Biostatistics in Pharmacology, vol. 2, Pergamon Press).

K. oxytoca = assay: Protective effect in experimentally-infected immunosuppressed mice (K. oxytoca); assay type: in vivo; details: for % Mortality, K. oxytoca: cyclophosphamide-immunodepressed CD1 mice, 25 mg/kg/d i.p. day -5 through day -1, challenge day 0
Excerpt: as §1, §2

S. marcescens = assay: Protective effect in experimentally-infected immunosuppressed mice (S. marcescens); assay type: in vivo; details: for % Mortality, S. marcescens: cyclophosphamide-immunodepressed CD1 mice, 25 mg/kg/d i.p. day -5 through day -1, challenge day 0
Excerpt: as §1, §2

rat blood granulocytes = assay: In vitro-ex vivo chemotactic activity of rat blood granulocytes (modified Boyden chamber); details: for Chemotaxis (μm ± S.E.) induced: casein-induced migration; for Chemotaxis (μm ± S.E.) induced / Chemotaxis (μm ± S.E.) spontaneous: 25 mg/kg/d i.p. day -5 through day -1; for Chemotaxis (μm ± S.E.) spontaneous: spontaneous migration (Hank's medium)
Protocol: In vitro-ex vivo effects of ST 689 and ST 789 on the chemotactic activity of rat blood granulocytes.
Inbred male Fisher 344 rats (Charles River, Italy), ca. 6 months old, were used in experimental groups of 5 animals. Test animals received the compounds at dosage of 25 mg/kg daily from day -5 through day -1 relative to the day of blood sampling (day 0). The experimental procedure employed is described in Cates, L. K. et al., Modified Boyden chamber method of measuring polymorphonuclear leukocyte chemotaxis, in Leukocyte chemotaxis, Raven Press, New York, N.Y., 1978, p. 67.
Blood was sampled from decapitated animals that, after passage through heparinised gauze, was diluted 1/1 with dextran (1.5% in physiological solution) and allowed to sediment for 90 min. The granulocytes, extracted from whole blood by the usual methods; were brought to a concentration of 2×10^6 cells/mL in Hank's medium. They were then deposited on Millipore filters (3 μm) and placed in migration chambers. These chambers contained either Hank's medium for the evaluation of spontaneous migration, or casein (2 mL of a 5 mg/mL solution) for the evaluation of induced migration. After incubating the samples for 60 min at 37° C. with 5% CO2, the Millipore filters were removed, stained, and inserted between microscope slides. Microscopic observations were performed to determine the furthest distance (in μm) traversed in controls and experimental samples by 2 granulocytes within the rectangular viewing field. Granulocytic migration is expressed as the average value of 10 detailed observations on two filters prepared from each sample.

Sarcoma 180 = assay: Protective effect in mice carrying Sarcoma 180; assay type: in vivo; details: for % survival: CD1 mice carrying Sarcoma 180; for % survival / Died/Total / MST (Mean Survival Time; median): 25 mg/kg/d i.p. day +1 through +10; for Died/Total / MST (Mean Survival Time; median): CD1 mice, 1×10^4 Sarcoma 180 cells i.p.; for MST (Mean Survival Time; median): 25 mg/kg/day; for Body weight (x ± S.E.) of Sarcoma 180-carrying animals: 25 mg/kg/d i.p., in g
Protocol: Evaluation of the protective effect of ST 689 and ST 789 in tumour-carryingmice,
Outbred male CDI mice (Charles River, Italy), 7 weeks old, were used. Experimental groups containing 10 animals were inoculated i.p. with 1×10^4 Sarcoma 180 cells (ATCC, Rockville, Md., U.S.A.) in 0.1 mL of TC 199 medium. The compounds were administered intraperitoneally in 0.2 mL of sterile physiological solution at daily doses of 25 mg/kg from day +1 through day +10 relative to the day of tumour transplant (day 0). In addition, body weights of the animals were followed from day 0 through day 20. The weights of the animals can be indicative of the development of neoplastic processes. The activity of the compounds was evaluated in terms of % survival expressed as the Mean Survival Time (MST). The data reported in Table 4 indicate a substancial protective effect of ST 689 compared to ST 789 vis-a-vis % survival (20% vs. 10%) in terms of MST (21 vs. 17).

[2] = immunodepressed mice, 25 mg/kg/d i.p.
[3] = day +13, number in parentheses = animals still alive
[4] = day +15, number in parentheses = animals still alive
[5] = day +17, number in parentheses = animals still alive
[6] = day +20, number in parentheses = animals still alive

Row | Structure (SMILES) | PFC/10^6 cells (x ± S.E.) [1] | PFC/spleen (x ± S.E.) [1] | % Mortality, E. coli (E. coli) | % Mortality, K. oxytoca (K. oxytoca) | % Mortality, S. marcescens (S. marcescens) | Chemotaxis (μm ± S.E.) induced (rat blood granulocytes) | Chemotaxis (μm ± S.E.) spontaneous (rat blood granulocytes) | % survival (Sarcoma 180) | Died/Total (Sarcoma 180) | MST (Mean Survival Time; median) (Sarcoma 180) | Body weight (x ± S.E.) of Sarcoma 180-carrying animals (Sarcoma 180; day 0) | Body weight (x ± S.E.) of Sarcoma 180-carrying animals (Sarcoma 180; day +1) | Body weight (x ± S.E.) of Sarcoma 180-carrying animals (Sarcoma 180; day +3) | Body weight (x ± S.E.) of Sarcoma 180-carrying animals (Sarcoma 180; day +6) | Body weight (x ± S.E.) of Sarcoma 180-carrying animals (Sarcoma 180; day +8) | Body weight (x ± S.E.) of Sarcoma 180-carrying animals (Sarcoma 180; day +10) | Body weight (x ± S.E.) of Sarcoma 180-carrying animals (Sarcoma 180; [3]) | Body weight (x ± S.E.) of Sarcoma 180-carrying animals (Sarcoma 180; [4]) | Body weight (x ± S.E.) of Sarcoma 180-carrying animals (Sarcoma 180; [5]) | Body weight (x ± S.E.) of Sarcoma 180-carrying animals (Sarcoma 180; [6]) | also measured
1 | O=c1[nH]cnc2c1cnn2CCCCCO [ST 689, 1,5-dihydro-1-(5-hydroxypentyl)-4H-pyrazolo-[3,4-d]-pyrimidin-4-one] | 303 ± 47 PFC/10^6 cells | 64839 ± 15985 PFC/spleen | 40% | 10% | 20% | 44.8 ± 1.40 μm | 14.40 ± 0.40 μm | 20% | 8/10 | 21 | 23.0 ± 0.38 | 23.7 ± 0.34 | 24.5 ± 0.50 | 27.1 ± 0.62 | 28.3 ± 0.97 | 28.4 ± 0.81 | 28.6 ± 0.89 | 30.5 ± 1.28 | 32.5 ± 1.70 | 32.6 ± 1.85 | Activity in terms of the number of PFC per spleen, in words ([1]; 25 mg/kg/d i.p., increase not statistically significant with respect to the control): more active than ST 789; Protective activity in Klebsiella infection, in words (K. oxytoca; [2]): equal to that of ST 789; Protective activity in Serratia infection, in words (S. marcescens; [2]): better than ST 789; Increase of rat granulocyte chemotaxis, in words (rat blood granulocytes; 25 mg/kg/d i.p.): more active than ST 789; Neoplastic proliferation judged from body weights, in words (Sarcoma 180; compared to animals treated with ST 789): diminution of neoplastic proliferation
2 | N=C(N)NCCC[C@H](NC(=O)OCCCCCn1cnc2c(=O)[nH]cnc21)C(=O)O [ST 789, N-alfa-5-(hypoxanthin-9-yl)-pentyloxycarbonylarginine, reference compound] | 220 ± 30 PFC/10^6 cells | 35011 ± 4761 PFC/spleen | 20% | 10% | 50% | 30.4 ± 2.30 μm | 10.01 ± 1.09 μm | 10% | 9/10 | 17 | 22.8 ± 0.30 | 23.6 ± 0.34 | 24.8 ± 0.30 | 27.6 ± 0.46 | 29.5 ± 0.64 | 31.5 ± 0.92 | 32.2 ± 0.96 | 33.4 ± 1.05 | 33.7 ± 1.46 | 34.8 ± 3.90 | –

Reference: patent US5272151A, “Aminoacyl and oligopeptidyl derivatives of allopurinol exhibiting immunostimulatory activity, and pharmaceutical formulations containing these substances” (Sigma-Tau Industrie Farmaceutiche Riunite S.p.A., priority 1991, dated 1993)
